Results on 10 compounds are retold here after ChEMBL document CHEMBL1201862, “PubChem BioAssay data set” (2004).

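Following 48 hours of exposure in 96-well plates, responses at five concentrations were used to interpolate endpoints linearly. Abbreviation: GI50, concentration required for 50% inhibition of growth.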 Active and inactive are the calls of the source. Cut-off read from the data, not from the text of the source: active = GI50 up to about 1.1 µM and inactive = higher.

Test systems include MCF7; OVCAR-4; UO-31; IGROV-1; HCT-15; HCT-116; KM12; Hs-578T; ACHN; NCI-H460; SK-MEL-5; MDA-MB-435; U-251; NCI-H23; MDA-N; DU-145; SW-620; NCI-H522; PC-3; COLO 205.
Common to all, as to test: NCI tumour cell line growth inhibition, 48 h

For `COc1ccc(CCN2CCN(CCc3ccc(OC)cc3)CC2)cc1`, the GI50 was > 100 µM (inactive) with MCF7; > 100 µM (inactive) with OVCAR-4; > 100 µM (inactive) in the assay with UO-31; > 100 µM (inactive) in the assay on IGROV-1; more than 100 µM in the assay with HCT-15; > 100 µM (inactive) in the assay with HCT-116. Besides, the GI50 with KM12, in the assay on Hs-578T, in the assay on ACHN, in the assay with NCI-H460, in the assay with SK-MEL-5 and in the assay with MDA-MB-435 was > 100 µM (inactive) in each case. The GI50 in the assay with U-251, with NCI-H23, with MDA-N, with DU-145, in the assay on SW-620 and in the assay with NCI-H522 was > 100 µM (inactive) in each case. Besides, the GI50 in the assay on PC-3 and with COLO 205 was > 100 µM (inactive) throughout.

Consider `C=C1C(=O)C23CC1CCC2C12CO[C@H](O)[C@H]1C(C)(C)[C@H](OC(C)=O)C[C@H]2OC3=O` (stereo not given in full), for which the GI50 with MCF7 is 15.8 µM (inactive); with OVCAR-4, > 100 µM (inactive); in the assay with UO-31 it was 22.9 µM (inactive); in the assay on IGROV-1, 31.9 µM (inactive); with HCT-15 it was 14.6 µM; in the assay on HCT-116, 14.8 µM (inactive). The GI50 is 23 µM (inactive) with KM12; 34.4 µM (inactive) with Hs-578T; 15.9 µM (inactive) in the assay with ACHN; 34.6 µM (inactive) in the assay on NCI-H460; 30.8 µM (inactive) in the assay with SK-MEL-5; 21.5 µM (inactive) in the assay with MDA-MB-435. Besides, the GI50 in the assay on U-251 is 64.1 µM (inactive); in the assay with NCI-H23 it was 27.7 µM (inactive); in the assay on MDA-N it was 16.1 µM (inactive); in the assay with DU-145, 25.5 µM (inactive); in the assay on SW-620, 14.3 µM (inactive); with NCI-H522, 1.26 µM (inactive). In addition, the GI50 in the assay on PC-3 is > 100 µM (inactive); in the assay on COLO 205 it was 15.1 µM (inactive).

On to `O=C1CC(c2n[nH]c3ccccc23)C(=O)N1c1ccccc1` (stereo not given), for which the GI50 in the assay on MCF7 is > 100 µM (inactive); in the assay with OVCAR-4, > 100 µM (inactive); in the assay with UO-31 it was > 100 µM (inactive); in the assay with IGROV-1, > 100 µM (inactive); with HCT-15, more than 100 µM; in the assay on HCT-116, > 100 µM (inactive). The GI50 in the assay with KM12, in the assay with Hs-578T, with ACHN, in the assay on NCI-H460, in the assay with SK-MEL-5 and with MDA-MB-435 was > 100 µM (inactive) each time. Also, the GI50 with U-251 is > 100 µM (inactive); in the assay on NCI-H23 it was > 100 µM (inactive); in the assay on MDA-N it was > 100 µM (inactive); in the assay on DU-145, > 100 µM (inactive); with SW-620 it was > 84.1 µM (inactive); in the assay with NCI-H522, > 100 µM (inactive). Further, the GI50 in the assay with PC-3 was > 100 µM (inactive); in the assay on COLO 205, > 93.8 µM (inactive).

With `COc1cccc2cc(C(=O)O)c(=O)oc12`, the GI50 was > 100 µM (inactive) with MCF7; > 100 µM (inactive) in the assay on OVCAR-4; > 100 µM (inactive) in the assay on UO-31; > 100 µM (inactive) in the assay on IGROV-1; more than 100 µM in the assay with HCT-15; > 100 µM (inactive) with HCT-116. Moreover, the GI50 in the assay on KM12, in the assay on Hs-578T, in the assay with ACHN, in the assay with NCI-H460, in the assay on SK-MEL-5 and with MDA-MB-435 was > 100 µM (inactive) in each case. The GI50 with U-251, in the assay on NCI-H23, with MDA-N, with DU-145, in the assay on SW-620 and with NCI-H522 was > 100 µM (inactive) in each case. The GI50 with PC-3 and in the assay on COLO 205 was > 100 µM (inactive) in each case.

As to `Cc1ccc2c(c1)S(=O)(=O)c1ccc3ccccc3c1N2`, the GI50 in the assay with MCF7 was > 100 µM (inactive); with OVCAR-4, > 100 µM (inactive); in the assay on UO-31 it was > 100 µM (inactive); with IGROV-1, > 100 µM (inactive); in the assay on HCT-15, more than 100 µM; with HCT-116, > 100 µM (inactive). The GI50 with KM12, in the assay with Hs-578T, with ACHN, in the assay on NCI-H460, in the assay on SK-MEL-5 and in the assay with MDA-MB-435 was > 100 µM (inactive) in each case. Also, the GI50 with U-251, with NCI-H23, in the assay with MDA-N, in the assay on DU-145, with SW-620 and in the assay with NCI-H522 was > 100 µM (inactive) each time. The GI50 with PC-3 and in the assay on COLO 205 was > 100 µM (inactive) throughout.

As to `Cc1ccc(S(=O)(=O)N2CCSCCSCCSCCSCC2)cc1`, the GI50 with MCF7 was > 72.9 µM (inactive); in the assay on OVCAR-4 it was 27.8 µM (inactive); with UO-31, 50.2 µM (inactive); with IGROV-1, 48.4 µM (inactive); in the assay on HCT-15 it was more than 100 µM; in the assay on HCT-116, 40 µM (inactive). For the same compound, the GI50 is > 100 µM (inactive) with KM12; > 23.3 µM (inactive) with Hs-578T; > 58.3 µM (inactive) in the assay on ACHN; 56.4 µM (inactive) with NCI-H460; 43.1 µM (inactive) in the assay on SK-MEL-5; 73.8 µM (inactive) in the assay on MDA-MB-435. Besides, the GI50 in the assay with U-251 is 18.4 µM (inactive); in the assay on NCI-H23, 40.1 µM (inactive); in the assay with MDA-N, > 89.7 µM (inactive); in the assay on DU-145 it was > 100 µM (inactive); in the assay on SW-620, > 100 µM (inactive); in the assay with NCI-H522, 33.6 µM (inactive). The GI50 was 55 µM (inactive) with PC-3 and > 100 µM (inactive) in the assay on COLO 205.

For `O=C1CN(c2ccccc2)C(=O)CN1CCN1CC(=O)N(c2ccccc2)CC1=O`, the GI50 with MCF7 is > 100 µM (inactive); in the assay with OVCAR-4, > 100 µM (inactive); with UO-31, > 100 µM (inactive); with IGROV-1, > 100 µM (inactive); in the assay on HCT-15, more than 100 µM; in the assay on HCT-116, > 100 µM (inactive). Besides, the GI50 in the assay on KM12, in the assay with Hs-578T, in the assay on ACHN, in the assay on NCI-H460, in the assay with SK-MEL-5 and with MDA-MB-435 was > 100 µM (inactive) in each case. Also, the GI50 in the assay with U-251, with NCI-H23, in the assay on MDA-N, in the assay with DU-145, with SW-620 and in the assay with NCI-H522 was > 100 µM (inactive) each time. Further, the GI50 in the assay with PC-3 and in the assay on COLO 205 was > 100 µM (inactive) throughout.

Consider `COc1cc(CCCOC(=O)/C=C/c2ccc(O)c(O)c2)cc(O)c1O`, for which the GI50 in the assay on MCF7 is 24.8 µM (inactive); in the assay with OVCAR-4, 40 µM (inactive); in the assay with UO-31, 37.5 µM (inactive); in the assay on IGROV-1 it was 80.2 µM (inactive); in the assay on HCT-15, 91.8 µM; with HCT-116, 17.7 µM (inactive). The GI50 in the assay with KM12 was 44.2 µM (inactive); in the assay with Hs-578T, 35.6 µM (inactive); with ACHN, > 100 µM (inactive); with NCI-H460 it was 49.8 µM (inactive); in the assay with SK-MEL-5 it was 31.2 µM (inactive); in the assay on MDA-MB-435 it was 28.6 µM (inactive). Also, the GI50 with U-251 was 36.8 µM (inactive); in the assay on NCI-H23, 56.4 µM (inactive); in the assay on MDA-N it was 22.8 µM (inactive); in the assay with DU-145 it was > 100 µM (inactive); with SW-620, 18.8 µM (inactive); in the assay with NCI-H522, 15 µM (inactive). The GI50 in the assay on PC-3 was 32.4 µM (inactive); in the assay with COLO 205 it was 94.6 µM (inactive).

On to `OCCN1CN(c2nc(N3CN(CCO)C3)nc(N3CN(CCO)C3)n2)C1`, for which the GI50 was 21.3 µM (inactive) in the assay with MCF7; 30.6 µM (inactive) in the assay on OVCAR-4; 20 µM (inactive) in the assay with UO-31; 30.1 µM (inactive) in the assay with IGROV-1; 22.3 µM in the assay on HCT-15; 18.6 µM (inactive) in the assay on HCT-116. Also, the GI50 was 21.4 µM (inactive) in the assay with KM12; 35.2 µM (inactive) with Hs-578T; 31.6 µM (inactive) in the assay on ACHN; 19.5 µM (inactive) in the assay on NCI-H460; 19.2 µM (inactive) in the assay on SK-MEL-5; 17.8 µM (inactive) in the assay with MDA-MB-435. Further, the GI50 in the assay with U-251 is 22.6 µM (inactive); with NCI-H23, 22.2 µM (inactive); in the assay with MDA-N it was 18.1 µM (inactive); in the assay with DU-145 it was 23.6 µM (inactive); in the assay with SW-620, 30 µM (inactive); in the assay with NCI-H522, 13.4 µM (inactive). In addition, the GI50 in the assay with PC-3 was 22.1 µM (inactive); in the assay with COLO 205, 28 µM (inactive).

With `O=c1cc(-c2ccccc2)oc2cc(Oc3nnnn3-c3ccccc3)ccc12`, the GI50 with MCF7 was 16.3 µM (inactive); in the assay on OVCAR-4, 19.9 µM (inactive); in the assay with UO-31, 19 µM (inactive); in the assay with IGROV-1, 98.4 µM (inactive); in the assay on HCT-15 it was 29 µM; with HCT-116, 34.6 µM (inactive). The GI50 in the assay on KM12 is 40.4 µM (inactive); with Hs-578T, 25.4 µM (inactive); with ACHN, 4.18 µM (inactive); in the assay on NCI-H460, 36.8 µM (inactive); in the assay with SK-MEL-5 it was 15.1 µM (inactive); in the assay on MDA-MB-435, 15.5 µM (inactive). The GI50 in the assay with U-251 was 19.1 µM (inactive); in the assay with NCI-H23, 51.6 µM (inactive); with MDA-N, 41.5 µM (inactive); in the assay with DU-145, 32.5 µM (inactive); with SW-620 it was > 100 µM (inactive); in the assay with NCI-H522, 36.1 µM (inactive). For the same compound, the GI50 with PC-3 is 39.4 µM (inactive); with COLO 205, 35.1 µM (inactive).
